Assay results as given in patent US20100144749A1, “TREATMENT OF CANCERS WITH ACQUIRED RESISTANCE TO KIT INHIBITORS” (priority 2005, published 2010).

How the values were obtained:
Assay type in all cases: cell-based, murine
[1] = system: Ba/F3 cells expressing human c-KIT with exon 11 deletion of residues 557-558; assay: Cell proliferation assay (CellTiter-Glo), Ba/F3 c-KIT exon 11 deletion mutant; details: BaF3; Ba/F3, c-KIT exon 11 del 557-558; 72 h; dose range 0.6 to 10,000 nM; mean of at least three experiments; read-out: IC50 of cell proliferation inhibition, Exon 11 (WT)
Experimental: (§1) All mutations were confirmed by DNA sequencing.
(§2) Selective pressure was applied to the transfected cells by removing IL-3 from the culture medium. After IL-independent populations, further selective pressure was applied by also growing the cells in the presence of 1 mg/mL G418. […] The stable pools were further characterized by sequencing genomic DNA to confirm the presence of the transfected c-KIT cDNA.
(§3) This assay utilizes cellular ATP as a marker for cell proliferation/viability. […] Plates were then incubated in a 5% CO2 incubator at 37° C. for 3 days. After 72 h, 100 microliters of lysis/luciferase reagent (CellTiter-Glo, Promega G7573) was added to each well. The cells were then incubated on a shaker for 5 minutes at room temperature, and luminescence was measured on a Victor 5 (Perkin Elmer) spectrophotometer. Growth inhibition was measured by comparing luminescence signal from treated vs. untreated cells in assay plates, and the IC50 analysis of cell proliferation inhibition by compounds was analyzed using Analyze 5 in-house software. […] The IC50 values are mean values calculated from at least three experiments.

[2] = system: Ba/F3 cells expressing c-KIT Exon 11/Y823D Gleevec-resistant double mutant; assay: Cell proliferation assay (CellTiter-Glo), Ba/F3 c-KIT exon 11/Y823D; details: Mus musculus, BaF3, 72 h, dose range 0.6 to 10,000 nM, mean of at least three experiments, read-out: IC50 of cell proliferation inhibition, Exon 11/Gleevec-resistant Double Mutant Y823D
Experimental: as §1, §2, §3

[3] = system: Ba/F3 cells expressing c-KIT Exon 11/N822K Gleevec-resistant double mutant; assay: Cell proliferation assay (CellTiter-Glo), Ba/F3 c-KIT exon 11/N822K; details: Mus musculus, BaF3, 72 h, dose range 0.6 to 10,000 nM, mean of at least three experiments, read-out: IC50 of cell proliferation inhibition, Exon 11/Gleevec-resistant Double Mutant N822K
Experimental: as §1, §2, §3

[4] = system: Ba/F3 cells expressing c-KIT Exon 11/V654A Gleevec-resistant double mutant; assay: Cell proliferation assay (CellTiter-Glo), Ba/F3 c-KIT exon 11/V654A; details: Mus musculus, BaF3, 72 h, dose range 0.6 to 10,000 nM, mean of at least three experiments, read-out: IC50 of cell proliferation inhibition, Exon 11/Gleevec-resistant Double Mutant V654A
Experimental: as §1, §2, §3

[5] = system: Ba/F3 cells expressing c-KIT Exon 11/D816G Gleevec-resistant double mutant; assay: Cell proliferation assay (CellTiter-Glo), Ba/F3 c-KIT exon 11/D816G; details: Mus musculus, BaF3, 72 h, dose range 0.6 to 10,000 nM, mean of at least three experiments, read-out: IC50 of cell proliferation inhibition, Exon 11/Gleevec-resistant Double Mutant D816G
Experimental: as §1, §2, §3

[6] = system: c-KIT-expressing Ba/F3 cell lines, Gleevec-resistant double mutants versus Exon 11 mutant; assay: Potency shift caused by c-KIT resistance mutations (summary of Table 2); details: double mutants relative to Exon 11 mutant, from Table 2
Experimental: as §1, §2, §3

- IC50 [1]: 3 nM
- IC50 [2]: 36 nM
- IC50 [3]: 17 nM
- IC50 [4]: 46 nM
- IC50 [5]: 8 nM
Structure (SMILES): CNC(=O)c1cc(Oc2ccc(NC(=O)Nc3ccc(Cl)c(C(F)(F)F)c3)cc2)ccn1 [BAY 43-9006, N-[4-chloro-3-(trifluoromethyl)phenyl]-N′-{4-[2-carbamoyl-1-oxo-(4-pyridyloxy)]phenyl} urea]
- decrease of drug potency caused by c-KIT resistance mutations [6]: no more than 15 fold
